Assay results taken from PubChem BioAssay (NCI).
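A five-concentration, 48-hour dose response in 96-well plates underlies each endpoint, interpolated linearly between surrounding concentrations. Definition used: TGI = concentration required for complete inhibition of growth.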

Columns and labels:
Assay in all cases: DTP human tumour cell line panel, 48 h
786-0 renal = tested on: 786-0 renal
A498 renal = tested on: A498 renal
BT-549 breast = tested on: BT-549 breast
CAKI-1 renal = tested on: CAKI-1 renal
CCRF-CEM leukemia = tested on: CCRF-CEM leukemia
HCC-2998 colon = tested on: HCC-2998 colon
HOP-92 NSCLC = tested on: HOP-92 NSCLC
HS 578T breast = tested on: HS 578T breast
HT29 colon = tested on: HT29 colon
IGROV1 ovarian = tested on: IGROV1 ovarian
KM12 colon = tested on: KM12 colon
MDA-MB-231 breast = tested on: MDA-MB-231 breast
MDA-N = tested on: MDA-N
NCI-H226 lung = tested on: NCI-H226 lung
NCI-H522 lung = tested on: NCI-H522 lung
SK-MEL-28 melanoma = tested on: SK-MEL-28 melanoma
SN12C renal = tested on: SN12C renal
SNB-19 CNS = tested on: SNB-19 CNS
SR leukemia = tested on: SR leukemia
SW-620 colon = tested on: SW-620 colon

SMILES	TGI (786-0 renal)	TGI (A498 renal)	TGI (BT-549 breast)	TGI (CAKI-1 renal)	TGI (CCRF-CEM leukemia)	TGI (HCC-2998 colon)	TGI (HOP-92 NSCLC)	TGI (HS 578T breast)	TGI (HT29 colon)	TGI (IGROV1 ovarian)	TGI (KM12 colon)	TGI (MDA-MB-231 breast)	TGI (MDA-N)	TGI (NCI-H226 lung)	TGI (NCI-H522 lung)	TGI (SK-MEL-28 melanoma)	TGI (SN12C renal)	TGI (SNB-19 CNS)	TGI (SR leukemia)	TGI (SW-620 colon)
COc1cc(/C=C2/CCCc3ccccc3C2=O)cc(OC)c1OC	> 62 µM	> 75 µM	> 78.5 µM	> 59.5 µM	> 100 µM	> 74 µM	> 82.2 µM	> 84.2 µM	> 100 µM	> 100 µM	> 50.1 µM	> 51.4 µM	> 43.8 µM	> 79.8 µM	41 µM	> 100 µM	> 51.4 µM	> 100 µM	> 39.2 µM	> 100 µM
O=C1CC(C(O)C(O)C(O)CO)CC(=O)N1 (stereo not given)	> 100 µM	> 100 µM	> 100 µM	> 100 µM	> 100 µM	> 100 µM	> 100 µM	> 100 µM	> 100 µM	> 100 µM	> 100 µM	> 100 µM	> 100 µM	> 100 µM	> 100 µM	> 100 µM	> 100 µM	> 100 µM	> 100 µM	> 100 µM
CC(=O)N(C(=O)CC(=O)NNCc1ccccc1Cl)c1ccc(Cl)cc1	> 10 µM	> 10 µM	> 10 µM	> 10 µM	> 10 µM	> 10 µM	> 10 µM	> 10 µM	> 10 µM	> 10 µM	> 10 µM	> 10 µM	> 10 µM	> 10 µM	> 10 µM	> 10 µM	> 10 µM	> 10 µM	> 10 µM	–
CC1OC1P(=O)(O)O (stereo not given)	> 100 µM	> 100 µM	> 100 µM	> 100 µM	> 100 µM	> 100 µM	> 100 µM	> 100 µM	> 100 µM	> 100 µM	> 100 µM	> 100 µM	> 100 µM	–	–	> 100 µM	> 100 µM	> 100 µM	> 100 µM	> 100 µM
NNC(=O)CC(=O)Nc1ccccc1Cl	> 100 µM	> 100 µM	> 100 µM	> 100 µM	> 100 µM	–	> 100 µM	> 100 µM	> 100 µM	> 100 µM	> 100 µM	> 100 µM	> 100 µM	–	> 100 µM	> 100 µM	> 100 µM	> 100 µM	> 100 µM	> 100 µM
Cc1cccc(-c2cccc(COCc3cccc(-c4cccc(CO)n4)n3)n2)n1	> 50 µM	> 50 µM	> 50 µM	> 50 µM	–	> 50 µM	> 50 µM	> 50 µM	> 50 µM	> 50 µM	> 50 µM	> 50 µM	> 50 µM	> 50 µM	> 50 µM	> 50 µM	> 50 µM	> 50 µM	> 50 µM	> 50 µM
C=CC(C)CCC(C/C=C(\C)CCCC(C)C)C(=C)CCCC(C)C (stereo not given)	> 100 µM	> 100 µM	> 100 µM	> 100 µM	> 100 µM	> 100 µM	> 100 µM	> 100 µM	–	> 100 µM	> 100 µM	> 100 µM	> 100 µM	> 100 µM	> 100 µM	> 100 µM	> 100 µM	> 100 µM	> 100 µM	> 100 µM
Nc1nc(Cl)cc(NCC2(CO)CC(CCCc3ccccc3)C2)n1 (stereo not given)	> 100 µM	> 100 µM	> 100 µM	> 100 µM	> 100 µM	> 100 µM	> 95.9 µM	> 100 µM	> 100 µM	> 100 µM	> 100 µM	> 100 µM	> 100 µM	> 100 µM	> 100 µM	> 100 µM	> 100 µM	> 100 µM	> 100 µM	> 100 µM
CC1(C)CC(=O)c2c([nH]c(=S)c(C#N)c2-c2ccc(Br)cc2)C1	> 100 µM	> 100 µM	> 100 µM	> 100 µM	> 100 µM	> 100 µM	52.5 µM	> 100 µM	> 100 µM	> 100 µM	–	> 100 µM	> 100 µM	> 100 µM	> 100 µM	> 100 µM	> 100 µM	> 100 µM	51.7 µM	> 100 µM
O=[N+]([O-])c1ccc(CSc2c3ccccc3nc3ccccc23)cc1	4.22 µM	58.8 µM	33.4 µM	29.6 µM	> 22.9 µM	32.7 µM	> 37.3 µM	11.3 µM	6.36 µM	7.66 µM	16.2 µM	27.4 µM	23.1 µM	35.8 µM	3.62 µM	13.5 µM	9.81 µM	37.4 µM	> 27.1 µM	> 24.4 µM
COC(=O)c1c(O)ccc2c1c1cc3ccccc3c(O)c1n2Cc1ccccc1Cl	54.1 µM	> 100 µM	91.7 µM	61.9 µM	> 100 µM	47.7 µM	91.7 µM	84.4 µM	25 µM	44.8 µM	61.8 µM	> 100 µM	61.8 µM	> 100 µM	29.5 µM	46.4 µM	> 100 µM	> 100 µM	> 100 µM	–
C=C1CC(COc2ccc3c(C)c(Cl)c(=O)oc3c2)(c2ccccc2)OC1=O (stereo not given)	2.95 µM	25.7 µM	2.87 µM	3.12 µM	–	3.59 µM	3.01 µM	17.5 µM	2.67 µM	3.89 µM	6.69 µM	14.4 µM	5.48 µM	8.01 µM	3.93 µM	6.43 µM	20.1 µM	29.7 µM	> 21.5 µM	2.62 µM
